Measurements: PubChem BioAssay AID1963435 (Molecular Pharmacology Branch, DTP, NCI, 2024)
Values joined by “and” are separate entries in the source; they are usually repeats but may differ in a detail not shown here. Equal entries are not always repeated.

System: PANC-1 complex spheroid growth, percent test/control
Assay: Anticancer human tumor PANC-1 cell line growth inhibition [Asc];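 further: spheroids exposed to agents for 7 days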;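 on viability, T/C: percent viability relative to DMSO vehicle wells taken as 100%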
Conditions: for viability, T/C: stronger effect = lower value
Procedure: Multicellular complex tumor spheroid response to apoptosis pathway targeting inhibitors Alrizomadlin, Pelcitoclax, and Dasminapant in combination with a variety of drugs and investigational agents in selected tumor cell lines
The MDM2 inhibitor alrizomadlin, the Bcl-2/Bcl-xL inhibitor pelcitoclax, and the IAPs inhibitor dasminapant were evaluated both individually and in combination with standard of care and investigational anticancer small molecules within a complex spheroid model of solid tumors. . Complex spheroids include a stromal component modeled by human endothelial cells (HUVEC) and fibroblasts modeled by human mesenchymal stem cells (MSCs). The concentration ranges selected for each drug and investigational agent were based upon clinically achievable concentrations if the clinical Cmax of the agent was known.
Compounds. The drugs and investigational agents: alrizomadlin (APG-115; NSC831270), pelcitoclax (APG-1252; NSC835773), dasminapant (APG-1387;NSC834197), TAK-243 (NSC785004), copanlisib (NSC809693), olaparib (NSC753686), talazoparib (NSC767125), cobimetinib (NSC 768068), eltanexor (KPT-8602, NSC 794443), abemaciclib (NSC 768073), sotorasib (NSC818433), adagrasib (NSC 831453), MRTX-1133 (NSC 836407), Iadademestat (ORY1001, NSC 806812), and RMC-4630 (NSC839698), were obtained from the NCI Developmental Therapeutics Program Chemical Repository. The FDA-approved anticancer drug set is available from the Developmental Therapeutics Program at https://dtp.cancer.gov/organization/dscb/obtaining/available plates.htm. […] The stock solutions were prepared in dimethyl sulfoxide (DMSO, Sigma-Aldrich, St. Louis, MO, cat. D2650) at 800-fold the tested concentration and stored at -70 degrees C prior to their use. All drugs and investigational agents were tested over a range starting from a high concentration at or near the clinical Cmax and decreasing in half-log increments. If the clinical Cmax for an agent had not been determined, the highest concentration tested was 10 microM.
The patient-derived cancer (PDC) cell lines include five colon adenocarcinomas: 186277-243-T-J2-PDC, 616215-338-R-J1-PDC, 439559-082-T-J2-PDC, 463943-066-T-J2-PDC, and 519858-162-T-J1-PDC; three pancreatic carcinomas: 323965-272-R-J2-PDC, 521955-158-R6-J3-PDC, and 521955-158-R2-J5-PDC; two uterine sarcomas: 327498-152-R-J2-PDC and 993429-296-R-J1-PDC; two rhabdomyosarcomas: 755483-174-R-J1-PDC and 772245-204-R-J1-PDC; two soft tissue sarcomas: 126254-015-R-J1-PDC and 494315-158-R-J1-PDC; two malignant fibrous histiocytomas: 317291-083-R-J1-PDC and 596521-263-R-J1-PDC; two breast carcinomas: 171881-019-R-J1-PDC and 885512-296-R-J2-PDC; and one ovarian carcinoma: 6556581-035-R-J-PDC were obtained from the NCI PDMR, (https://pdmr.cancer.gov). The established cell lines HSSY-2 synovial sarcoma (RRID:CVCL 8719), SYO-1 synovial sarcoma (RRID:CVCL_7146), MPNST malignant peripheral neural sheath tumor were obtained from the Sloan Kettering Institute. The following established cell lines were purchased from the American Type Culture Collection (ATCC, Manassas, VA), Sor the received from the NCI repository:, PANC-1 pancreatic carcinoma (CRL-1469, RRID:CVCL_0480), OVCAR-5 ovarian carcinoma (RRID:CVCL_1628), OVCAR-8 ovarian carcinoma (RRID:CVCL_1629), , MCF-7 breast carcinoma (CRL-12584, RRID:CVCL_0031), MDA-MB-231 breast carcinoma (CRL-12532, RRID:CVCL_0062), NCI-H1876 small cell lung carcinoma (CRL-5902, RRID:CVCL_1503), NCI-H510A small cell lung carcinoma (HTB-184, RRID:CVCL_1565), NCI-H1417 (CRL-5869, RRID:CVCL_1469), and NCI-H196 small cell lung carcinoma (CRL-5823, RRID:CVCL_1509). Dr. Peter Houghton (Greehey Children's Cancer Research Institute, University of Texas Health Science Center, San Antonio, TX) provided Rh-18 rhabdomyosarcoma (RRID:CVCL_1659). Pooled donor human umbilical vein endothelial cells (HUVEC, Lonza, cat. CC-2519) and human mesenchymal stem cells (hMSC, Lonza, cat. PT-2501) were purchased from Lonza (Walkersville, MD).
Cell Culture. […]

In the case of `NC(=O)C(=Cn1cnc(-c2cc(C(F)(F)F)cc(C(F)(F)F)c2)n1)c1cncnc1` + CCN1C(C(=O)NC23CCC(C(=O)O)(CC2)CC3)C(c2cccc(Cl)c2F)C2(C(=O)Nc3cc(Cl)ccc32)C12CCCCC2, the IC50 (curve of first compound, second compound 0.00949 µM) is reported as greater than 300 nM, the IC50 (curve of first compound, second compound 0.03 µM) is reported as greater than 300 nM and the IC50 (curve of first compound, second compound 0.0949 µM) is reported as greater than 300 nM. It also gave an IC50 (curve of first compound, second compound 0.3 µM) greater than 300 nM, an IC50 (curve of first compound, second compound 0.949 µM) greater than 300 nM and an IC50 (curve of first compound, second compound 3 µM) greater than 300 nM. The viability, T/C (second compound 0.00949 µM, first compound 0.000949 µM) was 101%, the viability, T/C (second compound 0.00949 µM, first compound 0.003 µM) was 90.1% and the viability, T/C (second compound 0.00949 µM, first compound 0.00949 µM) was 90%. For the same compound, the viability, T/C (second compound 0.00949 µM, first compound 0.03 µM) was 104%, the viability, T/C (second compound 0.00949 µM, first compound 0.0949 µM) was 114% and the viability, T/C (second compound 0.00949 µM, first compound 0.3 µM) was 92.2%. It also gave a viability, T/C (second compound 0.03 µM, first compound 0.000949 µM) of 95.6%, a viability, T/C (second compound 0.03 µM, first compound 0.003 µM) of 95.5% and a viability, T/C (second compound 0.03 µM, first compound 0.00949 µM) of 98.6%. It also gave a viability, T/C (second compound 0.03 µM, first compound 0.03 µM) of 91.3%, a viability, T/C (second compound 0.03 µM, first compound 0.0949 µM) of 115% and a viability, T/C (second compound 0.03 µM, first compound 0.3 µM) of 104%. For the same compound, the viability, T/C (second compound 0.0949 µM, first compound 0.000949 µM) was 89.6%, the viability, T/C (second compound 0.0949 µM, first compound 0.003 µM) was 101% and the viability, T/C (second compound 0.0949 µM, first compound 0.00949 µM) was 90.1%. The viability, T/C (second compound 0.0949 µM, first compound 0.03 µM) was 92.4%, the viability, T/C (second compound 0.0949 µM, first compound 0.0949 µM) was 117% and the viability, T/C (second compound 0.0949 µM, first compound 0.3 µM) was 99.5%. The viability, T/C (second compound 0.3 µM, first compound 0.000949 µM) was 100%, the viability, T/C (second compound 0.3 µM, first compound 0.003 µM) was 89.6% and the viability, T/C (second compound 0.3 µM, first compound 0.00949 µM) was 89.1%. It also gave a viability, T/C (second compound 0.3 µM, first compound 0.03 µM) of 103%, a viability, T/C (second compound 0.3 µM, first compound 0.0949 µM) of 117% and a viability, T/C (second compound 0.3 µM, first compound 0.3 µM) of 93.8%. For the same compound, the viability, T/C (second compound 0.949 µM, first compound 0.000949 µM) was 97.5%, the viability, T/C (second compound 0.949 µM, first compound 0.003 µM) was 100% and the viability, T/C (second compound 0.949 µM, first compound 0.00949 µM) was 105%. The viability, T/C (second compound 0.949 µM, first compound 0.03 µM) was 99.3%, the viability, T/C (second compound 0.949 µM, first compound 0.0949 µM) was 125% and the viability, T/C (second compound 0.949 µM, first compound 0.3 µM) was 97.7%. It also gave a viability, T/C (second compound 3 µM, first compound 0.000949 µM) of 120%, a viability, T/C (second compound 3 µM, first compound 0.003 µM) of 107% and a viability, T/C (second compound 3 µM, first compound 0.00949 µM) of 113%. It also gave a viability, T/C (second compound 3 µM, first compound 0.03 µM) of 112%, a viability, T/C (second compound 3 µM, first compound 0.0949 µM) of 121% and a viability, T/C (second compound 3 µM, first compound 0.3 µM) of 96.6%.
For `O=C(c1ccc(F)c(F)c1Nc1ccc(I)cc1F)N1CC(O)([C@@H]2CCCCN2)C1`, the viability, T/C (compound 0.00316 µM) was 94.2% and 92.8% and 95.9%, the viability, T/C (compound 0.01 µM) was 90.2% and 82.4% and 91.8% and the viability, T/C (compound 0.0316 µM) was 87.9% and 89.5% and 101%. The viability, T/C (compound 0.1 µM) was 85.8% and 91.7% and 97.6%, the viability, T/C (compound 0.316 µM) was 87.8% and 89.1% and 96.5% and the viability, T/C (compound 1 µM) was 92.6% and 92.3% and 102%. The IC50 (curve of compound) was greater than 1000 nM.
